This assay addresses PHGDH (Homo sapiens (Human), UniProt O43175). Briefly: PHGDH inhibition, coupled assay with PSAT1/PSPH and diaphorase/resazurin readout. The format is biochemical. The conditions noted are these: Table E9; mixture with PSAT1, PSPH; diaphorase/resazurin reporter.

One may read the IC50 as the point on the concentration scale where inhibition reaches its midpoint.

Sequence of PHGDH (O43175 whole entry): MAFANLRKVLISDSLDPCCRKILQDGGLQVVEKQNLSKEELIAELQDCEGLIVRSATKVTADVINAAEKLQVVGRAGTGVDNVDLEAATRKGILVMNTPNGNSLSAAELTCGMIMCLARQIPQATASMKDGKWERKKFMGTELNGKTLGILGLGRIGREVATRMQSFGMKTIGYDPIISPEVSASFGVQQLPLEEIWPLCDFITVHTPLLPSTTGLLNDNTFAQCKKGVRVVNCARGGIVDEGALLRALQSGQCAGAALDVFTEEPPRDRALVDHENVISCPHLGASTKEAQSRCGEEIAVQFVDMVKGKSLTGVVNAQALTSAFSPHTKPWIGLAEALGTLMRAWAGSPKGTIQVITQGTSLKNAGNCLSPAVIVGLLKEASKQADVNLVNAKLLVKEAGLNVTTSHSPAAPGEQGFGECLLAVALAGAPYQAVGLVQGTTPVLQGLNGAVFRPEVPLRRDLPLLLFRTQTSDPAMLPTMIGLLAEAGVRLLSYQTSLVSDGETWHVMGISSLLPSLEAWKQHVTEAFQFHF
Protocol: Compounds of the invention were assayed for inhibition of the activity phosphoglycerate dehydrogenase (PHGDH). The compounds were assayed in a mixture comprising PHGDH, PSAT1, PSPH, NADH, and glutamate. Diaphorase and resazurin were used as a fluorescent reporter system.
In this endogenous pathway coupled assay, the production of NADH by PHGDH was measured through the diaphorasemediated reduction of resazurin (See, e.g., Chakraborty, S., Sakka, M., Kimura, T. & Sakka, K. “Characterization of a dihydrolipoyl dehydrogenase having diaphorase activity of Clostridium kluyveri.” BioscL Biotechnol. Biochem. 72, 982-988 (2008)).
PHGDH assay buffer contained 50 mM TEA pH 8.0, 10 mM MgCl2, 0.05% BSA, and 0.01% Tween-20. PHGDH enzyme buffer consisted of assay buffer with 20 nM PHGDH and 0.2 mg/mL diaphorase. PHGDH substrate buffer contained 0.3 mM NAD 1.25 mM glutamate, 0.1 mM 3-phosphoglycerate, 0.2 mM resazurin, 1 μM PSAT1, and 1 μM PSPH. qHTS was performed in 1536-well plates dispensed with a BioRAPTR FRD. Each well contained equal volumes of substrate buffer and assay buffer. Plates were read at 0 minutes and 20 minutes at room temperature with a ViewLux uHTS Microplate Imager (PerkinElmer). Follow-up assays were performed in black 384-well plates (Greiner) in 20 μL of enzyme buffer to which compounds were added in dose-response with an HP D300 digital dispenser (Hewlett-Packard), followed by addition of 20 μL of substrate buffer. Plates were incubated at room temperature (25° C.) and read at 0 and 20 minutes with a Spectramax M5 plate reader (Molecular Devices) in fluorescence intensity mode with a λex=550 nm and λem=600 nm (emission cutoff=590 nm).

As to `Cc1cc(C)nc(NC(=S)N2CCN(c3ccc(Cl)cc3Cl)CC2)c1` [Compound 68], the 50% inhibitory concentration (IC50) was in the range of 5 to 10 µM.
With `Cc1cc(C)nc(NC(=S)N2CCN(c3ccc(F)cc3F)CC2)c1` [Compound 90], the IC50 is 5 to 10 µM.
The result for `Cc1ccnc(NC(=S)N[C@@H]2CCN(c3cccc(C(F)(F)F)c3)C2)c1` [Compound 42] reads at least 20 µM.
Regarding `Cc1ccnc(NC(=S)NC2CCN(c3cccc(C(F)(F)F)c3)CC2)c1` [Compound 50], the concentration for half-maximal inhibition (IC50) was 10 to 20 µM.
The result for `Cc1nc(CN(C)c2ncnc3ccc(-c4ccc5[nH]ncc5c4)cc23)cs1` [Compound 222] reads at least 20 µM; that for `Cc1ccnc(NC(=S)N2CCN(C)CC2)c1` [Compound 16], at least 20 µM.
The result for `COc1ccnc(NC(=S)N2CCN(c3cc(Cl)cc(Cl)c3)CC2)c1` [Compound 178] reads 5 to 10 µM; that for `Cc1cc(C)nc(NC(=S)N2CCN(c3cccc(C(=O)O)c3)CC2)c1` [Compound 102], at least 20 µM; that for `COc1ccc(CN2CCN(C(=S)Nc3cc(C)cc(C)n3)CC2)cc1` [Compound 293], 10 to 20 µM.
The result for `Cc1cc(C)nc(NC(=S)N2CCN(Cc3ccc(OC(F)(F)F)cc3)CC2)c1` [Compound 296] reads under 5 µM; that for `Cc1cc(C)nc(NC(=S)N2CCN(Cc3cccc4ccccc34)CC2)c1` [Compound 168], at least 20 µM.
Regarding `Cc1cc(C)nc(NC(=S)N2CCN(Cc3cccc(Cl)c3)CC2)c1` [Compound 284], the half-inhibitory concentration (IC50) lay within 10 to 20 µM.
For `Cc1cc(C)nc(NC(=S)N2CCN(c3ccc4cn(C)nc4c3)CC2)c1` [Compound 129], the IC50 was at least 20 µM.
On to `COc1ccnc(NC(=S)N2CCN(c3cccc(Cl)c3Cl)CC2)c1` [Compound 180], for which the half-maximal inhibitory concentration (IC50) is 5 to 10 µM.
For the molecule `Cc1ccnc(NC(=S)N2CCN(c3ccc(Cl)cc3Cl)CC2)c1` [Compound 172], the IC50 is 5 to 10 µM.
The result for `COc1cccc(NC(=S)N2CCN(c3ccc4ccccc4n3)CC2)n1` [Compound 196] reads at least 20 µM; that for `Cc1cc(C)nc(NC(=S)N2CCC(NC(=O)c3cccc(C(F)(F)F)c3)CC2)c1` [Compound 263], under 5 µM; that for `Cc1ccnc(NC(=S)Nc2cccc(C(F)(F)F)c2)c1` [Compound 46], 10 to 20 µM.
Turning to `COc1ccnc(NC(=S)N2CCN(c3ncc(C(F)(F)F)cc3Cl)CC2)c1` [Compound 185], the IC50 lay in the range of 5 to 10 µM.
As to `Cc1cc(C)nc(NC(=S)N2CCN(Cc3cccc(F)c3)CC2)c1` [Compound 277], the IC50 was in the range of 10 to 20 µM.
The figure for `Cc1cc(C)nc(NC(=S)N2CCN(c3cccc4ccccc34)CC2)c1` [Compound 69] is 5 to 10 µM.
The figure for `Cc1cc(C)nc(NC(=S)N2CCN(c3ccc([N+](=O)[O-])c4cccnc34)CC2)c1` [Compound 123] is at least 20 µM; for `S=C(Nc1cc(Cl)ccn1)N1CCN(c2ccc3ccccc3n2)CC1` [Compound 203] it is at least 20 µM.
The figure for `Cc1cc(C)nc(NC(=S)N2CCN(c3cc(C(F)(F)F)nc4ccccc34)CC2)c1` [Compound 122] is under 5 µM; for `Cc1cc(C)nc(NC(=S)N2CCN(c3ncc(Cl)cc3Cl)CC2)c1` [Compound 81] it is 5 to 10 µM.
On to `Cc1cc(C)nc(NC(=S)N2CCN(c3ccc4ccccc4c3)CC2)c1` [Compound 70], for which the IC50 was in the range of 5 to 10 µM.
`CN(C)c1ccc2nc(NC(=S)N3CCN(c4cccc(C(F)(F)F)c4)CC3)sc2c1` [Compound 144]: the IC50 was at least 20 µM.
The figure for `Cc1cccc(CN2CCN(C(=S)Nc3cc(C)cc(C)n3)CC2)c1` [Compound 291] is under 5 µM; for `Cc1cc(C)nc(NC(=S)N2CCN(c3ncccc3C#N)CC2)c1` [Compound 121] it is at least 20 µM.
As to `Cc1ccnc(NC(=O)N2CCN(c3cccc(C(F)(F)F)c3)CC2)c1` [Compound 3], the IC50 is at least 20 µM.
`Cc1cc(C)nc(NC(=S)N2CCN(c3nccc4occc34)CC2)c1` [Compound 103]: the 50% inhibitory concentration (IC50) fell in the range of 10 to 20 µM.
The result for `FC(F)(F)c1cc(N2CCN(C(=S)Nc3cc(Cl)ccn3)CC2)cc(C(F)(F)F)c1` [Compound 198] reads at least 20 µM.
The result for `Cc1ccnc(NC(=S)N2CCN(c3ccc(Cl)c(Cl)c3)CC2)c1` [Compound 173] reads 5 to 10 µM; that for `FC(F)(F)c1cccc(N2CCN(C(=S)Nc3cnccn3)CC2)c1` [Compound 128], at least 20 µM.
Regarding `Cc1cc(C)nc(NC(=S)N2CCN(c3ccc(Cl)cc3[S+](C)(=O)[O-])CC2)c1` [Compound 115], the IC50 was 10 to 20 µM.
The figure for `Cc1cc(C)nc(NC(=S)N2CCN(Cc3ccccc3F)CC2)c1` [Compound 288] is 10 to 20 µM; for `Cc1cc(C)nc(NC(=S)N2CCC(Nc3cccc(C(F)(F)F)c3)CC2)c1` [Compound 250] it is under 5 µM.
The result for `Cc1cc(C)nc(NC(=S)N2CCN(c3cccc4cnccc34)CC2)c1` [Compound 147] reads 10 to 20 µM; that for `CC(=O)N1CCN(C(=S)Nc2cc(C)ccn2)CC1` [Compound 18], at least 20 µM.
The figure for `Cc1ccnc(NC(=S)N2CCC(Nc3cccc(C(F)(F)F)c3)CC2)c1` [Compound 56] is 5 to 10 µM; for `Cc1cc(C)nc(NC(=S)N2CCN(c3ccc4nonc4c3)CC2)c1` [Compound 159] it is at least 20 µM; for `Cc1ccnc(NC(=S)N2CCNCC2)c1` [Compound 53] it is at least 20 µM.
Turning to `COc1cc(OC)cc(N2CCN(C(=S)Nc3cc(C)cc(C)n3)CC2)c1` [Compound 216], the half-inhibitory concentration (IC50) was 10 to 20 µM.
The result for `COc1cccc(NC(=S)N2CCN(c3cccc(Cl)c3Cl)CC2)n1` [Compound 189] reads 10 to 20 µM; that for `Cc1cc(C)nc(NC(=S)N2CCN(c3ccc4ccccc4n3)CC2)c1` [Compound 85], 10 to 20 µM.
The figure for `Cc1cc(C)nc(NC(=S)N2CCC(CN3CCOCC3)CC2)c1` [Compound 270] is at least 20 µM.
The figure for `Cc1cccc(NC(=S)N2CCN(c3cccc(C(F)(F)F)c3)CC2)c1` [Compound 23] is at least 20 µM; for `Cc1cc(C)nc(NC(=S)N2CCN(c3nsc4ccccc34)CC2)c1` [Compound 108] it is 10 to 20 µM.
Regarding `Cc1cc(C)nc(NC(=S)N2CCN(c3ncccc3C(F)(F)F)CC2)c1` [Compound 113], the concentration for half-maximal inhibition (IC50) lay in the range of 10 to 20 µM.
The figure for `Cc1cc2nc(NC(=S)N3CCN(c4cccc(C(F)(F)F)c4)CC3)[nH]c2cc1C` [Compound 241] is at least 20 µM; for `Cc1cc(C)nc(NC(=S)N2CCN(C(=O)c3ccc(C(F)(F)F)cc3)CC2)c1` [Compound 265] it is under 5 µM.
The figure for `Cc1cc(C)nc(NC(=S)N2CCC(Cc3ccccc3)CC2)c1` [Compound 254] is under 5 µM; for `Cc1cc(C)nc(NC(=S)N2CCN(c3nc(C)cnc3C)CC2)c1` [Compound 104] it is at least 20 µM; for `Cc1cc(C)nc(NC(=S)N2CCN(Cc3ccc(C(F)(F)F)cc3)C(C(=O)O)C2)c1` (stereo not shown) [Compound 295, 4-((4,6-dimethylpyridin-2-yl)carbamothioyl)-1-(4-(trifluoromethyl)benzyl)piperazine-2-carboxylic acid] it is 5 to 10 µM.
The result for `Cc1cc(C)nc(Nc2nnc(N3CCN(c4cccc(C(F)(F)F)c4)CC3)s2)c1` [Compound 125] reads at least 20 µM.
For `Cc1cc(C)nc(NC(=S)N2CCN(c3cc4ccccc4cn3)CC2)c1` [Compound 145], the IC50 was at least 20 µM.
The figure for `Cc1cc(C)nc(NC(=S)N2CCN(Cc3ccc(C(F)(F)F)cc3)[C@@H](C)C2)c1` [Compound 297] is under 5 µM; for `COc1cccc(NC(=S)N2CCN(c3ccccc3C(F)(F)F)CC2)n1` [Compound 193] it is under 5 µM; for `Cc1ccnc(NC(=S)N2CCc3ccccc3C2)c1` [Compound 51] it is at least 20 µM.
The figure for `COc1cc(N2CCN(C(=S)Nc3cc(C)cc(C)n3)CC2)cc(C(F)(F)F)c1` [Compound 136] is 10 to 20 µM; for `Cc1cc(C)nc(NC(=S)N2CCN(c3cccc(C#N)c3)CC2)c1` [Compound 66] it is 10 to 20 µM; for `OCc1ccnc(NC(=S)N2CCN(c3cccc(C(F)(F)F)c3)CC2)c1` [Compound 27] it is at least 20 µM.
The result for `Cc1ccnc(NC(=S)N2CCN(c3cc(F)cc(Cl)c3)CC2)c1` [Compound 141] reads under 5 µM; that for `Cc1cc(C)nc(NC(=S)N2CCN(c3ccc4cnccc4c3)CC2)c1` [Compound 148], 10 to 20 µM; that for `FC(F)(F)c1cccc(N2CCN(C(=S)Nc3nc(-c4ccccc4)c[nH]3)CC2)c1` [Compound 230], under 5 µM.
As to `Cc1cc(C)nc(NC(=S)N2CCN(c3cccc(C(F)(F)F)c3)CC2)c1` [Compound 24], the 50% inhibitory concentration (IC50) fell in the range of 5 to 10 µM.
The result for `COc1cccc(CN2CCN(C(=S)Nc3cc(C)cc(C)n3)CC2)c1` [Compound 290] reads 10 to 20 µM; that for `Cc1cc(C)nc(NC(=S)N2CCN(c3ccc(F)c(F)c3F)CC2)c1` [Compound 208], 10 to 20 µM.
The result for `Cc1cc(C)nc(N/C(=N/C#N)N2CCN(c3cccc(C(F)(F)F)c3)CC2)c1` [Compound 95] reads at least 20 µM.
`Cc1ccc2nc(NC(=S)N3CCN(c4cccc(C(F)(F)F)c4)CC3)[nH]c2c1` [Compound 242]: the IC50 was under 5 µM.
The figure for `Cc1cc(C)nc(NC(=S)N2CCN(c3ncnc4sccc34)CC2)c1` [Compound 120] is at least 20 µM.
The result for `Cc1ccnc(NC(=S)N2CCN(c3cc(Cl)cc(Cl)c3)CC2)c1` [Compound 169] reads 5 to 10 µM; that for `Cc1ccc(CN2CCN(C(=S)Nc3cc(C)cc(C)n3)CC2)cc1` [Compound 292], under 5 µM; that for `CC(=O)c1ccc(N2CCN(C(=S)Nc3cc(C)ccn3)CC2)cc1` [Compound 14], at least 20 µM.
Take `FC(F)(F)c1ccc(N2CCN(C(=S)Nc3ccccn3)CC2)cc1` [Compound 25]: the IC50 lay in the range of 5 to 10 µM.
The result for `Cc1cc(C)nc(NC(=S)N2CCN(c3nc4ccccc4o3)CC2)c1` [Compound 105] reads 10 to 20 µM; that for `FC(F)(F)c1cccc(N2CCN(C(=S)Nc3cccnc3)CC2)c1` [Compound 30], under 5 µM; that for `Cc1cc(C)nc(NC(=S)N2CCN(c3ccc(F)c(Cl)c3)CC2)c1` [Compound 215], 5 to 10 µM.
Take `Cc1cc(C)cc(N2CCN(C(=S)Nc3cc(C)cc(C)n3)CC2)c1` [Compound 213]: the IC50 fell in the range of 10 to 20 µM.

Source of the values: patent publication US11225469B2, “Inhibitors of phosphoglycerate dehydrogenase (PHGDH) and uses thereof” (Whitehead Institute for Biomedical Research, priority 2015, dated 2022).
